In US11219607B2, “Methods for suppressing cancer-related cachexia” (Ohio State Innovation Foundation, priority 2013, dated 2022):

Assays:
Format in all cases: in vivo, CD2F1 mice
C-26 tumor-bearing mice [1] = assay: Delayed treatment in the C-26 model (body weight, tumor growth)
Procedure: (§1) In one aspect, tumors were established by subcutaneous injection of C-26 cells (0.5×10^6 cells in 0.1 ml) into the right flank of male CD2F1 mice (approximately 6 weeks of age; Harlan Laboratories, Indianapolis, Ind.)(11). Tumor-bearing mice, as well as tumor-free mice serving as non-cachectic controls, were randomized into groups that were treated with either AR-42 (50 mg/kg, p.o. by gavage, every other day; Arno Therapeutics, Inc., Flemington, N.J.) or vehicle (0.5% methylcellulose (w/v) and 0.1% Tween-80 (v/v) in sterile water) starting 6 days after cell injection. To investigate the effect of delayed treatment, treatments with drug and/or vehicle were started 6, 10 and 12 days after cancer cell injection.
In those experiments, treatment was initiated early in the progression of cachexia when overt signs of wasting were undetectable. To investigate whether later initiation of AR-42 treatment remains protective against cachexia, C-26 tumor-bearing mice were treated with AR-42 (50 mg/kg, p.o., every other day) starting at 6, 10 and 12 days after tumor cell injection.

IL-6 = assay: Serum cytokine profiling, C-26 model: IL-6; details: C-26 tumor-bearing mice, day 17; tumor-bearing/vehicle 230±105, tumor-free/vehicle 2.9±1.3
Text: (§2) Gastrocnemius muscles and sera were collected at day 17 post-cell injection from each treatment group (n=8/group). Muscle was submitted to Metabolon, Inc. (Durham, N.C.) for metabolomic analysis of 270 metabolic intermediates via proprietary mass spectrometry platforms. Serum was submitted to Eve Technologies (Alberta, Canada) for analysis of 32 cytokines using a mouse cytokine array (32-plex panel).
To shed light onto the mechanism by which AR-42 mediated its anti-cachectic effect, sera and gastrocnemius muscle from vehicle- or AR-42-treated tumor-free and C-26 tumor-bearing mice were used for cytokine profiling analysis and whole transcriptome shotgun sequencing (RNA-seq), respectively.

[2] = tested on: IL-6 receptor alpha chain (IL-6Rα) mRNA; assay: qPCR of skeletal muscle, C-26 model: IL-6Rα; details: muscle of C-26 tumor-bearing mice; tumor-bearing/vehicle 13±1.4-fold
Procedure: Total RNA was isolated from homogenized gastrocnemius muscles (n=3/group) with TRIzol reagent (Life Technologies, Carlsbad, Calif.) and then purified using the RNAeasy Mini Kit (Qiagen, Valencia, Calif.). qRT-PCR was performed as described previously (42) by using the Bio-Rad CFX96 Real-Time PCR Detection System with iQ SYBR Green Supermix (Bio-Rad, Hercules, Calif.). RNA-seq library generation and data analysis were performed at The Ohio State University Comprehensive Cancer Center (OSUCCC) Nucleic Acid Shared Resource.
Cytokine profiles. […] AR-42 reduced IL-6 and LIF levels by 56% and 88%, respectively, in tumor-bearing mice (IL-6, 102±38 pg/ml; LIF, 3.8±1.6 pg/ml) compared to the vehicle-treated counterparts. In light of the ability of AR-42 to blunt cachexia-associated increases in IL-6, we examined the effect of AR-42 on intramuscular mRNA levels of IL-6 receptor alpha chain (IL-6Rα). […] AR-42 reduced this cachexia-induced increase by 85% (2.0±0.2-fold; n=10)(FIG. 5, lower).

C-26 tumor-bearing mice [3] = assay: C-26 colon adenocarcinoma model of cancer cachexia (body, muscle and tissue weights, tumor growth, food intake)
Procedure: as §1
In another aspect, subcutaneous tumors were established in male C57BL/6 mice (approximately 6 weeks of age; Harlan) by injection of 0.5×10^6 LLC cells into the right flank. Treatment with AR-42 and vehicle was performed as for the C-26 model beginning 6 days after cell injection. In both models, body weights and food consumption were monitored daily and tumor size was measured no less than every two days. Mice were fasted for 2 hours prior to sacrifice, at which time, hind limb muscles, heart, spleen, epididymal fat, and blood were collected and the weights of the solid tissues were measured. Muscle samples were frozen in liquid nitrogen-chilled 2-methylbutane and then stored at −80° C. until analysis.
In one aspect, mice were treated orally by gavage with AR-42 (50 mg/kg) or vehicle every other day starting 6 days after injection C-26 cells, when palpable tumors had formed. […] By the study endpoint (day 15), the magnitude of the weight loss, after deducting the mass of the tumors (1 cm^3 volume=1 gram mass), reached >20% for the vehicle-treated group, and 6% for AR-42-treated mice (center). […] The AR-42-treated mice, despite their large tumor burden, were alert, responsive, active, and lacked the hunched posture and rough haircoat observed in vehicle-treated counterparts by the end point of this study (FIG. 1B).
CD2F1 and C57BL/6 mice were group-housed under conditions of constant photoperiod (12-hour light/12-hour dark), temperature and humidity with ad libitum access to water and standard diet. Mice were briefly anesthetized (isoflurane, 3-4%) during administration of drugs (AR-42, vorinostat, vehicle) by oral gavage. Food consumption was estimated by weighing food in each cage daily and dividing the daily decrease in food by the number of mice in the cage. Tumor volumes were calculated from caliper measurements using a standard formula (length×width^2×π/6).

[4] = tested on: gastrocnemius muscles of C-26 tumor-bearing mice; assay: Metabolomic profiling of gastrocnemius muscle, C-26 model; details: day 17, C-26 tumor-bearing mice
Text: as §2
With cachexia, skeletal muscles undergo complex metabolic changes in response to tumor/host-derived inflammatory and neuroendocrine stressors (1). Accordingly, we conducted metabolic profiling analysis to investigate the effect of AR-42 on cachexia-induced shifts in metabolic phenotype in skeletal muscle. Tumor-free and C-26 tumor-bearing mice were treated with vehicle or AR-42 as aforementioned, and gastrocnemius muscles were collected at day 17 for metabolomic analysis.

[5] = 50 mg/kg p.o. every other day, vehicle 19%

CC(C)[C@H](C(=O)Nc1ccc(C(=O)NO)cc1)c1ccccc1 [AR-42, (S)—N-hydroxy-4-(3-methyl-2-phenylbutanamido)benzamide]
loss of body weight (tumor excluded) by day 17, treatment starting at day 6 (C-26 tumor-bearing mice [1]; [5]): 6% | loss of body weight (tumor excluded) by day 17, treatment starting at day 10 (C-26 tumor-bearing mice [1]; [5]): 11% | loss of body weight (tumor excluded) by day 17, treatment starting at day 12 (C-26 tumor-bearing mice [1]; [5]): 12% | effect on tumor growth, delayed treatment experiment (C-26 tumor-bearing mice [1]; treatment from day 6, 10 or 12): without appreciable effects | serum IL-6 level (IL-6): 102 ± 38 pg/mL | IL-6Rα mRNA level compared to tumor-free mice [2]: 2.0±0.2 fold | enlarged spleens (splenomegaly) in tumor-bearing mice (C-26 tumor-bearing mice [3]): not improved | loss of cardiac tissue mass in tumor-bearing mice (C-26 tumor-bearing mice [3]): ameliorated | tumor growth relative to vehicle (C-26 tumor-bearing mice [3]; 50 mg/kg p.o. every other day from day 6, 15-day study): did not alter tumor growth | magnitude of the weight loss after deducting the mass of the tumors (C-26 tumor-bearing mice [3]; 50 mg/kg p.o. every other day from day 6, study endpoint day 15, vehicle group >20%): 6% | reduction of tibialis anterior weight relative to tumor-free control mice (C-26 tumor-bearing mice [3]; day 15, tumor-bearing/vehicle 10.5%): 0.8% | reduction of quadriceps weight relative to tumor-free control mice (C-26 tumor-bearing mice [3]; day 15, tumor-bearing/vehicle 18.1%): 5.8% | reduction of gastrocnemius weight relative to tumor-free control mice (C-26 tumor-bearing mice [3]; day 15, tumor-bearing/vehicle 20.6%): 9.6% | loss of adipose tissue mass in tumor-bearing mice (C-26 tumor-bearing mice [3]; restored to a level comparable to tumor-free/AR-42 mice): restored the loss of adipose tissue mass | cachectic phenotype of free amino acids and amino acid metabolites [4]: reversed | glycogen metabolic intermediates (short-chain malto-oligosaccharides, glucose 1-phosphate) [4]: significantly replenished | intramuscular levels of glucose and key glycolytic intermediates ([4]; lowered in cachectic muscle): reversed these metabolic changes | 2-hydroxybutyrate and ophthalmate levels in muscle ([4]; to levels comparable to tumor-free mice): dramatically reduced
